In one series the test system is HT29 (R273H). The experiment in a line: Cell viability assay (CellTiterGlo), HT29. The format is cell-based, human. To be noted: Homo sapiens, HT-29; 72 h, CellTiterGlo. As to the method:
(§1) Figure 1 PG3 inhibits cell proliferation and growth in a p53-indepent manner. (A–E) Cell viability assay, dose response curves and IC50 value measurements in a panel of cancer cell lines and normal cells. Cells were treated with different concentrations of PG3, PG3-Oc (Oc), obatoclax (Ob), prodigiosin (P) or DMSO for 72 h. Luciferase activity was imaged by the IVIS Imaging System after treatment. Cell viability data were normalized to those of DMSO treatment control in each cell line and data analyses were performed using PRISM4 software. IC50 data are expressed as the mean ±SD (normal; n = 3).
as §1, with “2 p53-dependent inhibition of” for “1 PG3 inhibits”, “is only observed at specific concentrations. (A–J)” for “and growth in a p53-indepent manner. (A–E)”, “ZMC1, CP-313908, APR-246, Ellipticine, Nutalin-3a” for “PG3, PG3-Oc (Oc), obatoclax (Ob), prodigiosin (P)”
(§2) Cells were seeded in 96-well plates (6 × 10^3 cells/well). Cells were treated with different concentrations of compounds or dimethyl sulfoxide (DMSO) as a control for 72 hours. The cell viability was assessed by CellTiterGlo bioluminescent cell viability assay (Promega), following the manufacturer’s protocol. Bioluminescence imaging was measured using the IVIS imager. The percentage of cell viability (mean ± SEM) at each dose was calculated against the respective DMSO control. The IC50 values were determined from the sigmoidal dose-response curves using GraphPad Prism.

For a further series, the system named is TOV-112D (R175H). The experiment in a line: Cell viability assay (CellTiterGlo), TOV-112D. Type of series: cell-based, human. To be noted: Homo sapiens, TOV112D; 72 h, CellTiterGlo; read-out: IC50 values, TOV-1120 (R175H) (converted). On the procedure:
as §1
as §1, with “2 p53-dependent inhibition of” for “1 PG3 inhibits”, “is only observed at specific concentrations. (A–J)” for “and growth in a p53-indepent manner. (A–E)”, “ZMC1, CP-313908, APR-246, Ellipticine, Nutalin-3a” for “PG3, PG3-Oc (Oc), obatoclax (Ob), prodigiosin (P)”
as §2
On the technique in general: Cellular ATP, detected with luciferase, serves as a proxy for viable cell number.

The next series concerns HCT116 (P53−/−). The experiment in a line: Cell viability assay (CellTiterGlo), HCT116 p53-/-. The format is cell-based, human. Conditions: Homo sapiens, HCT-116; 72 h, CellTiterGlo. On the procedure: as §1
as §1, with “2 p53-dependent inhibition of” for “1 PG3 inhibits”, “is only observed at specific concentrations. (A–J)” for “and growth in a p53-indepent manner. (A–E)”, “ZMC1, CP-313908, APR-246, Ellipticine, Nutalin-3a” for “PG3, PG3-Oc (Oc), obatoclax (Ob), prodigiosin (P)”
as §2

In another series the test system is HCT116 (WT). The series is described as follows: Cell viability assay (CellTiterGlo), HCT116 WT. The format is cell-based, human. To be noted: Homo sapiens, HCT-116; 72 h, CellTiterGlo. As to the method:
as §1
as §1, with “2 p53-dependent inhibition of” for “1 PG3 inhibits”, “is only observed at specific concentrations. (A–J)” for “and growth in a p53-indepent manner. (A–E)”, “ZMC1, CP-313908, APR-246, Ellipticine, Nutalin-3a” for “PG3, PG3-Oc (Oc), obatoclax (Ob), prodigiosin (P)”
as §2

The subject of a further series is HCT116 (R175H). The series is described as follows: Cell viability assay (CellTiterGlo), HCT116 R175H. The format is cell-based, human. Conditions: Homo sapiens, HCT-116; 72 h, CellTiterGlo. On the procedure:
as §1
as §1, with “2 p53-dependent inhibition of” for “1 PG3 inhibits”, “is only observed at specific concentrations. (A–J)” for “and growth in a p53-indepent manner. (A–E)”, “ZMC1, CP-313908, APR-246, Ellipticine, Nutalin-3a” for “PG3, PG3-Oc (Oc), obatoclax (Ob), prodigiosin (P)”
as §2

Series [1] relates to HFF-1 (human foreskin fibroblast cell with wild-type p53). The series is described as follows: Cell viability assay (CellTiterGlo), HFF-1 normal cells. Conditions: Homo sapiens, HFF-1; 72 h, CellTiterGlo, normal cells; read-out: IC50 values, HFF-l (WT). Type of series: cell-based. As to the method: as §1
as §1, with “2 p53-dependent inhibition of” for “1 PG3 inhibits”, “is only observed at specific concentrations. (A–J)” for “and growth in a p53-indepent manner. (A–E)”, “ZMC1, CP-313908, APR-246, Ellipticine, Nutalin-3a” for “PG3, PG3-Oc (Oc), obatoclax (Ob), prodigiosin (P)”
as §2

The test system of series [2] is MRC5 (human lung fibroblast cell with wild-type p53). The series is described as follows: Cell viability assay (CellTiterGlo), MRC5 normal cells. Type of series: cell-based. Conditions: Homo sapiens, MRC5, 72 h, read-out: IC50 values, MRC5 (WT). On the procedure:
as §1
as §1, with “2 p53-dependent inhibition of” for “1 PG3 inhibits”, “is only observed at specific concentrations. (A–J)” for “and growth in a p53-indepent manner. (A–E)”, “ZMC1, CP-313908, APR-246, Ellipticine, Nutalin-3a” for “PG3, PG3-Oc (Oc), obatoclax (Ob), prodigiosin (P)”
as §2

Series [3] has as its system HT29, TOV-112D, isogenic HCT116 cell lines, HFF-1 and MRC5. The experiment in a line: Cell viability assay, panel of cancer cell lines and normal cells (results in words). The format is cell-based, human. To be noted: 10 μM; all cell lines tested and normal cells. As to the method:
as §1, with “2 p53-dependent inhibition of” for “1 PG3 inhibits”, “is only observed at specific concentrations. (A–J)” for “and growth in a p53-indepent manner. (A–E)”, “ZMC1, CP-313908, APR-246, Ellipticine, Nutalin-3a” for “PG3, PG3-Oc (Oc), obatoclax (Ob), prodigiosin (P)”
as §2

The test system of series [4] is HCT116 (wild-type), SW480 (R273H, P309S), and DLD1 (S241F). The series is described as follows: Cell viability assay in colorectal cancer cell lines (Figure 1E). The format is cell-based, human. Conditions: 72 h. As to the method: as §1, §2
Series [5] deals with SW480 cells carrying a p53-responsive luciferase reporter. The series is described as follows: p53-responsive reporter assay. Type of series: cell-based, human. On the procedure: SW480 cells carrying a p53-responsive luciferase reporter were used for assay of functional restoration of mutant p53. Cells were seeded in 96-well plates (5 × 10^4 cells/well) and were treated with compounds indicated for 6 and 15 h, respectively. Then, D-luciferin was added to each well with final concentration 100 μg/mL, and cells were imaged by using an IVIS Imaging System to detect luciferase activity.
p53-mutant SW480 human colon cancer cells, stably expressing a p53-responsive luciferase reporter, were used to assay functional restoration p53 pathway-dependent transcription in mutant p53-expressing tumor cells. Cells were seeded in 96-well plates (5 × 10^4 cells/well) and were treated with small-molecule compounds for 6 and 15 h, respectively. Then, D-luciferin was added to each well at a final concentration of 100 μg/mL, and cells were imaged by using an IVIS Imaging System (Xenogen) to detect luciferase activity.

Another series has as its system ATF4. The experiment in a line: Western blot, ATF4 induction. The format is cell-based, human. To be noted: five cancer cell lines, 24 h. On the procedure: (§3) Figure 4 Activation of ATF4 and up-regulation of typical p53 target genes. (A–E) Western blot analysis of p53 protein levels and upregulation of ATF4, PUMA, DR5 and p21. Cells were treated for 24 h with indicated compounds, concentrations and cell lines. Abbreviations: S.E.: Short exposure; L.E.: Long exposure.
(§4) After treatment, protein lysates were collected for Western blot analysis. A total of 15 μg of protein was used for SDS-PAGE. After primary and secondary antibody incubations, the signal was detected by a chemiluminescence detection kit, imaged by Syngene (Imgen Technologies). Antibodies for NAG-1 (GDF15) and P53 were from Santa Cruz Biotechnology; for caspase 8, cleaved caspase 8, caspase 9, caspase 3, cleavage PARP, eIF2α, p-eIF2α (Ser51), CHOP, ATF4, DR5, and PUMA were from Cell Signaling Technology. Noxa and p21 were from Calbiochem. Ran was from BD Biosciences.
Background: A western blot detects proteins with antibodies after separation by electrophoresis.

A further series deals with p53 protein. The experiment in a line: Western blot, p53 protein levels. The format is cell-based, human. As to the method:
Cells were treated for 24 h with indicated compounds, concentrations and cell lines. Abbreviations: S.E.: Short exposure; L.E.: Long exposure.
as §4

The test system of the next series is DR5. The series is described as follows: Western blot, DR5 induction. Type of series: cell-based, human. Conditions: five cell lines, 24 h. On the procedure: as §3, §4
The subject of a further series is PUMA. The series is described as follows: Western blot, PUMA induction. Conditions: five cell lines, 24 h. The format is cell-based, human. On the procedure:
as §3, §4

For another series, the system named is p21. The series is described as follows: Western blot, p21 induction. The format is cell-based, human. To be noted: five cell lines, 24 h. On the procedure:
as §3, §4

For series [6] the following is noted: cited from earlier work.

As to `CCCCCCCCOC(=O)CCc1c(C)[nH]c(/C=C2\N=C(c3ccc[nH]3)C=C2OC)c1C` [PG3-Oc], the IC50 – broadly, the concentration at which inhibition is half-maximal – with HT29 (R273H) was 31 nM; in the series with TOV-112D (R175H), 38 nM; in the series with HCT116 (P53−/−) it was 62 nM; in the series with HCT116 (WT), 47 nM; with HCT116 (R175H), 52 nM; in series [1], 306 nM. Moreover, in series [2], the IC50 came out at 78 nM. In addition, the “toxicity at 10 μM” value in series [3] was “too toxic”. For the same molecule, in [4], the “potency compared among PG3-Oc, prodigiosin and Obatoclax” value is reported as “same potency”. In addition, the p53-responsive reporter activity entry is given as “do not activate reporter activity” in [5] (1.11 μM, 6 hour and 15 hour time points); “activation” in series [5] (10 μM, 6 hours). The “upregulation of ATF4” value in the series on ATF4 was “induce upregulation of ATF4”. In addition, the “wild-type p53 protein level” value with p53 protein (HCT116, 24 h) is recorded as “do not upregulate expression”. In addition, the “endogenous mutant p53 R273H protein level” value with p53 protein (HT29, 24 h) is “no effects on stability”. Moreover, the “endogenous mutant p53 R175H protein level” value with p53 protein (TOV-112D, 24 h) is “no effects on stability”. Moreover, the “exogenous mutant p53 R175H protein level” value with p53 protein (engineered HCT116-R175H cells, 24 h) is “stabilize”. The “upregulation of DR5” value with DR5 is “consistently induce upregulation”. Moreover, in the series on PUMA, the “upregulation of PUMA” value is listed as “consistently induce upregulation”. Moreover, in the series with p21, the “upregulation of p21” value is reported as “consistently induce upregulation”. For the same molecule, in [6], the stability in vivo result was “unstable in vivo”.

Source of the values: publication PMC11407758, “Integrated stress response (ISR) activation and apoptosis through HRI kinase by PG3 and other p53 pathway-restoring cancer therapeutics” (Oncotarget, 2024).
